Here are results for two molecules from US12371432B2, “Haloallylamine compounds and application thereof” (TransThera Sciences (Nanjing), Inc., priority 2019, dated 2025).

For the experiment, the target named is T1, rhAOC1 (Homo sapiens, UniProt P19801).
T1 construct: purchased R&D
T1 sequence (P19801 20-751): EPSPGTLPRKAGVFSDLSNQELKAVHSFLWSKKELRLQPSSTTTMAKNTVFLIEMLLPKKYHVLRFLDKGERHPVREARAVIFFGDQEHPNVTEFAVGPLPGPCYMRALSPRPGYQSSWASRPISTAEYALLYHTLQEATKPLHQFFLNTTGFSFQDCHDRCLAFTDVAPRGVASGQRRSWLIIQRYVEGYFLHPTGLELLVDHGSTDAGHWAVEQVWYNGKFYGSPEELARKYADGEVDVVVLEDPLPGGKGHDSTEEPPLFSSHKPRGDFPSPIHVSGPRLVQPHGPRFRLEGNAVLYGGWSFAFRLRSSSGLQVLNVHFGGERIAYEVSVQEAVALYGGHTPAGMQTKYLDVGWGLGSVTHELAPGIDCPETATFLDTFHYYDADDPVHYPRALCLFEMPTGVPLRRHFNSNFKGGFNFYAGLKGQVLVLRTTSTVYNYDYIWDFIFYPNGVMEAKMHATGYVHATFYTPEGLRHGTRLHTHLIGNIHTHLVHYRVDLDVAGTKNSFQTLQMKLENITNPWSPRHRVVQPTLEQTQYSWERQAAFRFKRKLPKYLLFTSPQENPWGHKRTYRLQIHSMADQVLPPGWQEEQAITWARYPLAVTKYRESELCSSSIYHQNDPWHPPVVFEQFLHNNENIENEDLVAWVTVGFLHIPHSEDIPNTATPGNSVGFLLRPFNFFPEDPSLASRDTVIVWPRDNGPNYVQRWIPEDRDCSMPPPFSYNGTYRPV
Kind of experiment: Selectivity against rhAOC1 enzyme (Biological Example 1). It counts as biochemical. As to conditions: Table 1; histamine substrate, Amplex Red/HRP. The protocol:
2. Selectivity of Compounds Against rhAOC1 Enzyme
(1) Instrument, Consumable and Reagent
Microplate reader (Perkin Elmer, Nivo 5S), black unclear-bottom 96-well plate (Corning) and rhAOC1 (R&D)
(2) Preparation of Concentration Gradient Compound Solutions
An appropriate amount of the compound to be tested was taken, dissolved in DMSO to 10 mM and then stored. Before the study, an appropriate amount of mother liquor of the 10 mM compound to be tested was taken and gradiently diluted 3-fold with DMSO, 10 concentration gradients in total. Each concentration gradient was then diluted 10-fold with 0.1 M of PBS.
(3) Preparation of Enzyme Solutions
An appropriate amount of rhAOC1 mother liquor with a concentration of 0.441 mg/mL was taken and diluted with an appropriate amount of 50 mM HEPES buffer solution to obtain enzyme solutions of 4× concentrations.
(4) Preparation of Substrate Mixtures of 2× Concentrations
An appropriate amount of histamine was weighed and dissolved with 50 mM of HEPES buffer solution to obtain 20 mM of histamine solution. The histamine solution was added with 2 mM of Amplex Red mother liquor and 500 U/mL of HRP mother liquor and diluted with 50 mM of HEPES buffer solution to obtain substrate mixtures of 2× concentrations.
10 μL compound solutions of different concentrations, 25 μL rhAOC1 enzyme solutions of 4× concentrations and 15 μL of 50 mM HEPES buffer solution were first added into a 96-well plate, shaken to be mixed uniformly and then incubated at 37° C. for 30 min. 50 μL substrate mixtures of 2× concentrations were then added into each well, and the microplate reader was immediately used to detect fluorescence intensity of each well with 580 nm (20 nm) exciting light and 620 nm (10 nm) emission light for 5 min each time, 30 min in total. […]
V: fluorescence change rate; Ft: fluorescence reading at time point t; F0: initial fluorescence reading; Time: duration t; Vcmpd: fluorescence change rate of tested compound; Vmax: Max hole fluorescence change rate. […]

Structures are written as SMILES. Structures can show the parent of a compound that is named as a salt.

In general, IC50 refers to the point on the concentration scale where inhibition reaches its midpoint. Low readings indicate greater potency, high ones weaker potency. `NC/C(=C\F)Cn1cc2c(n1)CCN(C1CC1)C2=O` [Compound A1, (E)-2-(2-(aminomethyl)-3-fluoroallyl)-5-cyclopropyl-2,5,6,7-tetrahydro-4H-pyrazolo[4,3-c]pyridin-4-one] had an IC50 of 22.1 µM. `NC/C(=C\F)Cn1ncc2c1CCN(C1CC1)C2=O` [Compound A2 hydrochloride, (E)-1-(2-(aminomethyl)-3-fluoroallyl)-5-cyclopropyl-1,5,6,7-tetrahydro-4H-pyrazolo[4,3-c]pyridin-4-one] returned an IC50 greater than 10 µM.
